Where “and” joins values, the source holds several entries; their conditions need not be identical. Equal values may be shown once.
Experiments:
[1] = tested on: K-Ras G12C (NCI-H358 cells); assay: Potency assay: pERK in NCI-H358 cells; assay type: cell-based, human; details: Homo sapiens; NCI-H358 cells, 4 hours; read-out: pERK EC50 (H358 KRAS G12C)
Method in brief: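 Cells plated the day before were exposed for 4 h at 37° C, 5% CO2 to a 10-point, 3-fold DMSO dilution series (10 mM top stock), in duplicate. Phospho-ERK was read by AlphaLISA SureFire Ultra or by In-Cell Western with DRAQ5 DNA stain, and IC50 came from a 4-parameter sigmoidal fit.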

KRAS G12D = KRAS G12D (Homo sapiens (Human), UniProt P01116+P62937, G12D); assay: Ras-Raf disruption/FRET/MOA assay (BRAF RBD, Cyclophilin A); assay type: biochemical; details: read-out: KRAS G12D FRET IC50
Method in brief: (§1)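 Ras-GMPPNP (12.5 nM), BRAF RBD (50 nM) and 25 μM Cyclophilin A were incubated with compound for 3 h at 25° C, then detected 1.5 h with anti-His Eu and anti-GST APC; IC50 values follow from the reduced TR-FRET ratio.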

KRAS G12V = KRAS G12V (Homo sapiens (Human), UniProt P01116+P62937, G12V); assay: as above; assay type: biochemical; details: read-out: KRAS G12V FRET IC50
Method in brief: as §1

KRAS G12S = KRAS G12S (Homo sapiens (Human), UniProt P01116+P62937, G12S); assay: as above; assay type: biochemical; details: read-out: KRAS G12S FRET IC50
Method in brief: as §1

KRAS WT = KRAS WT (Homo sapiens (Human), UniProt P01116+P62937); assay: as above; assay type: biochemical; details: read-out: KRAS WT FRET data IC50
Method in brief: as §1

NRAS Q61K = NRAS Q61K (Homo sapiens (Human), UniProt P01111+P62937, Q61K); assay: as above; assay type: biochemical
Method in brief: (§2)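 TR-FRET read after 1.5 h with 10 nM anti-His Eu-W1024 and 50 nM anti-GST APC, following 3 h at 25 °C of GMPPNP-loaded His6-Ras (12.5 nM), GST-BRAF RBD (50 nM) and Cyclophilin A (25 μM) with compound from 30 μM final, 10 points, 3-fold. IC50 reported; pH 7.3 HEPES, 100 mM NaCl.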

NRAS WT = NRAS WT (Homo sapiens (Human), UniProt P01111+P62937); assay: as above; assay type: biochemical
Method in brief: as §2

KRAS G13D = KRAS G13D (Homo sapiens (Human), UniProt P01116+P62937, G13D); assay: as above; assay type: biochemical; details: read-out: KRAS G13D FRET data IC50
Method in brief: as §1

KRAS G13C = KRAS G13C (Homo sapiens (Human), UniProt P01116+P62937, G13C); assay: as above; assay type: biochemical; details: read-out: KRAS G13C FRET IC50
Method in brief: as §1

NRAS Q61R = NRAS Q61R (Homo sapiens (Human), UniProt P01111+P62937, Q61R); assay: as above; assay type: biochemical
Method in brief: as §2

KRAS Q61H = KRAS Q61H (Homo sapiens (Human), UniProt P01116+P62937, Q61H); assay: as above; assay type: biochemical
Method in brief: as §1

NRAS G12C = NRAS G12C (Homo sapiens (Human), UniProt P01111+P62937, G12C); assay: as above; assay type: biochemical; details: read-out: NRAS G12C FRET data IC50
Method in brief: as §2

KRAS G12C = KRAS G12C (Homo sapiens (Human), UniProt P01116+P62937, G12C); assay: as above; assay type: biochemical; details: read-out: KRAS G12C FRET IC50
Method in brief: as §1

[2] = tested on: Capan-1 cells (K-Ras G12V); assay: CellTiter-Glo cell viability, Capan-1; assay type: cell-based, human; details: Homo sapiens, CAPAN-1, 120 h, K-Ras G12V, 5-day treatment; read-out: Capan-1 Cell Viability IC50
Method in brief: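 Endpoint: CellTiter-Glo luminescence on day 5, following ~30 min at room temperature. Data as (sample/mean DMSO)×100, four-parameter logistic fit.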

Sequence of KRAS G12V (P01116 other isoform, or with tags, fused parts or gaps G12V): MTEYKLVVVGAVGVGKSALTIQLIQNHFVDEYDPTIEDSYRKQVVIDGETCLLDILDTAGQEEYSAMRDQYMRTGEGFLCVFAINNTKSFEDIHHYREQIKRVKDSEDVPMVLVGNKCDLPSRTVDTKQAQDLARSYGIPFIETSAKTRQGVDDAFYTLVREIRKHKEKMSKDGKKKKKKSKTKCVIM
Sequence of KRAS G12V (P62937 whole entry): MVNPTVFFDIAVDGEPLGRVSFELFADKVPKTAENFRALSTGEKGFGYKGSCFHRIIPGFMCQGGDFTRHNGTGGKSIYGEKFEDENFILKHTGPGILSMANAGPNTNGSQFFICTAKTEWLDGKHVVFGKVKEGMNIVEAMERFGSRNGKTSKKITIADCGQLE
Sequence of KRAS G13C (P01116 other isoform, or with tags, fused parts or gaps G13C): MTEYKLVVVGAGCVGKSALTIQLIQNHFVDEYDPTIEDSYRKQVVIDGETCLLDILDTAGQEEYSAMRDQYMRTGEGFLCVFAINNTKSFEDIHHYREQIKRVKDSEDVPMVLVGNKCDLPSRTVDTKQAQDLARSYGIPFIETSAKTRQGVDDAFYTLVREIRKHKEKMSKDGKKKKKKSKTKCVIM
Sequence of KRAS G13C (P62937 whole entry): as the sequence (P62937 whole entry) above
Sequence of NRAS Q61R (P01111 whole entry Q61R): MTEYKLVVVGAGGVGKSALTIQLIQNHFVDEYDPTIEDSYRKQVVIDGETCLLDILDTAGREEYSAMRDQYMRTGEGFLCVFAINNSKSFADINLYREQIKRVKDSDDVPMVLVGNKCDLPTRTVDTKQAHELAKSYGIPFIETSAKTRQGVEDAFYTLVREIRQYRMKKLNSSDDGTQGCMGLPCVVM
Sequence of NRAS Q61R (P62937 whole entry): as the sequence (P62937 whole entry) above
Sequence of KRAS G13D (P01116 other isoform, or with tags, fused parts or gaps G13D): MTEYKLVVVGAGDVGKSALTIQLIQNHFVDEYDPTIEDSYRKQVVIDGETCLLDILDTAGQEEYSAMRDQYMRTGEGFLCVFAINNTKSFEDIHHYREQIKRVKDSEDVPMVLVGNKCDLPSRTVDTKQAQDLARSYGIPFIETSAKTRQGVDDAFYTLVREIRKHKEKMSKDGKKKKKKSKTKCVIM
Sequence of KRAS G13D (P62937 whole entry): as the sequence (P62937 whole entry) above
Sequence of KRAS G12C (P01116-2 other isoform, or with tags, fused parts or gaps G12C): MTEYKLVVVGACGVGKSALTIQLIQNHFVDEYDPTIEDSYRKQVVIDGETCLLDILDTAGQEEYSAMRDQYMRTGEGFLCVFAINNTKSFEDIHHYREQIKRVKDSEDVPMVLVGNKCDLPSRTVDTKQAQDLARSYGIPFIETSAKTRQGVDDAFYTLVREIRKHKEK
Sequence of KRAS G12C (P62937 whole entry): as the sequence (P62937 whole entry) above
Sequence of NRAS Q61K (P01111 whole entry Q61K): as the sequence (P01111 whole entry Q61R) above, with R61K counted along it
Sequence of NRAS Q61K (P62937 whole entry): as the sequence (P62937 whole entry) above
Sequence of KRAS G12S (P01116 other isoform, or with tags, fused parts or gaps G12S): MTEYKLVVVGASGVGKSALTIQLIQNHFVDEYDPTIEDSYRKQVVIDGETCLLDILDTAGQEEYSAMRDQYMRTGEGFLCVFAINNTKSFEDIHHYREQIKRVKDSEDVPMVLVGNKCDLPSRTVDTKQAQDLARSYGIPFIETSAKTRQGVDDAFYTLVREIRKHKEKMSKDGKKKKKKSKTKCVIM
Sequence of KRAS G12S (P62937 whole entry): as the sequence (P62937 whole entry) above
Sequence of NRAS G12C (P01111 whole entry G12C): as the sequence (P01111 whole entry Q61R) above, with G12C, R61Q counted along it
Sequence of NRAS G12C (P62937 whole entry): as the sequence (P62937 whole entry) above
Sequence of KRAS G12D (P01116 other isoform, or with tags, fused parts or gaps G12D): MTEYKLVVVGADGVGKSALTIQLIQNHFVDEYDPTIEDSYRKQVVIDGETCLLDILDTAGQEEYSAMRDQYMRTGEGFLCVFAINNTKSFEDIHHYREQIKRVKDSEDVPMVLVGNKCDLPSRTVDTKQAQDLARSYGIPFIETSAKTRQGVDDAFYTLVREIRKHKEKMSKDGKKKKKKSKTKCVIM
Sequence of KRAS G12D (P62937 whole entry): as the sequence (P62937 whole entry) above
Sequence of NRAS WT (P01111 whole entry): as the sequence (P01111 whole entry Q61R) above, with R61Q counted along it
Sequence of NRAS WT (P62937 whole entry): as the sequence (P62937 whole entry) above
Sequence of KRAS WT (P01116 other isoform, or with tags, fused parts or gaps): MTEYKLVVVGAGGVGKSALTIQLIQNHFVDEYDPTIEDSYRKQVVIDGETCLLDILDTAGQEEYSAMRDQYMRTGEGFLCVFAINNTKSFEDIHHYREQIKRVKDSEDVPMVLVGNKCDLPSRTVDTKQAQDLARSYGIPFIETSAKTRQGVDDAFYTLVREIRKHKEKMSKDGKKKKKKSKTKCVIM
Sequence of KRAS WT (P62937 whole entry): as the sequence (P62937 whole entry) above
Sequence of KRAS Q61H (P01116 other isoform, or with tags, fused parts or gaps Q61H): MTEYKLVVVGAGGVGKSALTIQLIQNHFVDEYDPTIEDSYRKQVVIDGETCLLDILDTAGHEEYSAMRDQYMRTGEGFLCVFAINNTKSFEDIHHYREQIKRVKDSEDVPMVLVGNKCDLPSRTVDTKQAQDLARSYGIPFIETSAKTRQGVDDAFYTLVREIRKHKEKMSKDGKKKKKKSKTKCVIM
Sequence of KRAS Q61H (P62937 whole entry): as the sequence (P62937 whole entry) above

Structure (SMILES) | EC50 [1] | IC50 (KRAS G12D) | IC50 (KRAS G12V) | IC50 (KRAS G12S) | IC50 (KRAS WT) | IC50 (NRAS Q61K) | IC50 (NRAS WT) | IC50 (KRAS G13D) | IC50 (KRAS G13C) | IC50 (NRAS Q61R) | IC50 (KRAS Q61H) | IC50 (NRAS G12C) | IC50 (KRAS G12C) | IC50 [2]
CCn1c(-c2cccnc2[C@H](C)OC)c2c3cc(ccc31)-c1cc(O)cc(c1)C[C@H](NC(=O)[C@@H]1CCCCCN1C(C)=O)C(=O)N1CCC[C@H](N1)C(=O)OCC(C)(C)C2 [Compound A176] | < 5 µM | 1 to 10 µM | 0.1 to 1 µM | 1 to 10 µM | 0.1 to 1 µM | 0.1 to 1 µM | 0.1 to 1 µM | 0.1 to 1 µM | 0.1 to 1 µM | 1 to 10 µM | 0.1 to 1 µM | 0.1 to 1 µM | 0.1 to 1 µM | 1 to 10 µM
CCn1c(-c2cccnc2[C@H](C)OC)c2c3cc(ccc31)-c1cc(O)cc(c1)C[C@H](NC(=O)CC(C)c1ccncc1)C(=O)N1CCC[C@H](N1)C(=O)OCC(C)(C)C2 (stereo partly drawn) [Compound A178] |  | 1 to 10 µM and > 10 µM | 1 to 10 µM | 1 to 10 µM | 0.1 to 1 µM and 1 to 10 µM | 1 to 10 µM | 0.1 to 1 µM and 1 to 10 µM | 1 to 10 µM | 0.1 to 1 µM | 1 to 10 µM and > 10 µM | 0.1 to 1 µM | 1 to 10 µM | 0.1 to 1 µM and 1 to 10 µM | > 10 µM
CCn1c(-c2cccnc2[C@H](C)OC)c2c3cc(ccc31)-c1cc(O)cc(c1)C[C@H](NC(=O)[C@@H]1[C@@H](C)CCN1C(C)=O)C(=O)N1CCC[C@H](N1)C(=O)OCC(C)(C)C2 [Compound A208] |  | 1 to 10 µM | 1 to 10 µM | 1 to 10 µM | 0.1 to 1 µM | 0.1 to 1 µM | 0.1 to 1 µM | 1 to 10 µM | 0.1 to 1 µM | 1 to 10 µM | 0.1 to 1 µM | 1 to 10 µM | 0.1 to 1 µM | > 10 µM
CCn1c(-c2cccnc2[C@H](C)OC)c2c3cc(ccc31)-c1cc(O)cc(c1)C[C@H](NC(=O)[C@H](C(C)C)N(C)C(=O)C1CCC(=O)N1C)C(=O)N1CCC[C@H](N1)C(=O)OCC(C)(C)C2 (stereo partly drawn) [Compound A230] |  | 0.1 to 1 µM | 0.01 to 0.1 µM | 0.01 to 0.1 µM | 0.01 to 0.1 µM | 0.1 to 1 µM | 0.01 to 0.1 µM | 0.1 to 1 µM | 0.01 to 0.1 µM | 0.1 to 1 µM | 0.01 to 0.1 µM | 0.01 to 0.1 µM | 0.01 to 0.1 µM | 1 to 10 µM
CCn1c(-c2cccnc2[C@H](C)OC)c2c3cc(ccc31)-c1csc(n1)C[C@H](NC(=O)N1CCN(C)CC1)C(=O)N1CCC[C@H](N1)C(=O)OCC(C)(C)C2 [Compound A265, N-((6^3S,4S,Z)-1^1-ethyl-1^2-(2-((S)-1-methoxyethyl)pyridin-3-yl)-10, 10-dimethyl-5,7-dioxo-6^1,6^2,6^3,6^4,6^5,6^6-hexahydro-1^1H-8-oxa-2 (4,2)-thiazola-1 (5,3)-indola-6 (1,3)-pyridazinacycloundecaphane-4-yl)-4-methylpiperazine-1-carboxamide] |  | 0.1 to 1 µM | 0.01 to 0.1 µM | 0.1 to 1 µM | 0.1 to 1 µM | 0.1 to 1 µM | 0.1 to 1 µM | 0.1 to 1 µM | 0.1 to 1 µM | 0.1 to 1 µM | 0.1 to 1 µM | 0.01 to 0.1 µM | 0.01 to 0.1 µM | 1 to 10 µM
